In patent publication US20230414771A1, “PREPARATION AND USE OF IMMUNOSTIMULATORY CONJUGATED COMPLEXES FOR TARGETED DELIVERY AND ACTIVATION” (YAFEI SHANGHAI BIOLOGY MEDICINE SCIENCE & TECHNOLOGY CO., …, priority 2020, published 2023):
Read-outs that look alike come from different tables or passages of the source. Where a SMILES comes first, the peptide text is derived from it. The star is where a group is joined. Doxorubicin(3'-N) = COc1cccc2c1C(=O)c1c(O)c3c(c(O)c1C2=O)C[C@@](O)(C(=O)CO)C[C@@H]3O[C@H]1C[C@H](N*)[C@H](O)[C@H](C)O1; MeOCH2CH2OCH2CO = COCCOCC(=O)*

Legend:
[1] = tested on: Human hepatoma HepG2 cells; test: Human liver cancer HepG2 tumors in nude mice; format: in vivo; conditions: for inhibition in vivo at 54 µmol/kg: HepG2, iv, 672 h
Protocol: • 1. Animals: nude mice aged 6-8 weeks, all female. • 2. Preparation of tumor models
Human hepatoma HepG2 cells were purchased from ATCC and identified according to the instructions provided. […] Randomization was performed when the tumor size reached 100 mm^3.
Treatment was then initiated, and the day of initiation of treatment was counted as Day 1. • 3) Treatment process
According to the clinical application of the corresponding compound, the drug was administered intravenously (IV). The compound and the control drug were administered at a dose of 54 umol/kg, and DOX could only be administered at a dose of 18 umol/kg due to toxicity limitations.

[2] = tested on: M2 macrophages; test: Cytotoxicity screening, inhibition rate of M2 macrophages at 10 uM; format: cell-based, C57BL/6 mice; conditions: 10 uM drug per well, 3 wells, relative to the drug-free group
Protocol: After the cell count in Example 13, the cell concentration was adjusted with the culture medium, and the cells were seeded in a 96-well culture plate at […] of cell suspension per well, wherein the seeding concentration of CD8+ T cells was 100000 cells/well, and the seeding concentration of M2 macrophages was 20000 cells/well. The 96-well plate was incubated overnight for 24 hour at 37° C. in a carbon dioxide (5%) incubator. After 24 hours, 100 ul of cell culture solutions containing different concentrations of drugs were added to the 96-well culture plate. At the same time, a control well (0.1% DMSO) with no drug added and only the corresponding drug solvent and a zero-adjusted well (Blank) with only medium and no cells added was set. Each set was prepared in triplicate and the plates were incubated for 48 hours at 37° C. in a 5% CO2 incubator. After 48 hours, 20 μl MTT (5 mg/ml) was added to each well and the incubation was continued for 4 hours. The culture medium was then gently aspirated, and 150 μl DMSO was added to each well as solvent for dissolution. After dissolution, the absorbance at 490 nm was measured with a microplate reader.
Cytotoxicity screening experiments for some compounds were performed for M2 macrophage inhibition as in embodiment 14.

[3] = tested on: HT1080 tumors; test: HT1080 tumor model in nude mice, 36 umol/kg; format: in vivo; conditions: for inhibition in vivo at 36 µmol/kg: Mus musculus, read-out: Tumor inhibition rate Day 28
Protocol: • 1. Animals: nude mice aged 6-8 weeks, all female. • 2. Preparation of tumor models • 1) HT1080 cells were purchased from ATCC and characterized according to the instructions provided. […] Randomization was performed when the tumor size reached 100 mm^3. Treatment was then initiated, and the day of initiation of treatment was counted as Day 1. • 3) Treatment process
According to the clinical application of the corresponding compound, the drug was administered intravenously (IV). The compounds indicated in the table were administered at a low dose and at the same dose of 36 umol/kg.

[4] = tested on: acidified human breast cancer (MDA-MB435) tumor tissue homogenate; test: Activation efficiency of S-C-A linkers in tumor tissue homogenate, HPLC; format: biochemical; conditions: C is AAN, 1 mg/ml, homogenate pH 6.0, 37° C.
Protocol: When C is AAN, the activation of the different S-C-A linkers and the control linker is evaluated in an activation assay. They were dissolved and diluted tenfold using S-C-A conjugates to a concentration of 0.1 mM/ml. The sample compounds were added at a concentration of 1 mg/ml to 100 μg of acidified human breast cancer (MDA—MB435) tumor tissue homogenate (pH 6.0) at 37° C. The enzyme in the tumor tissue homogenate was released and detected by HPLC to compare the efficiency of activation of the linker by the tumor tissue.
The effect of the D-type tripeptide on the activation efficiency was examined in comparison to the native peptide sequence linker cleaved by Legumain, S1 in MI-S is —CH2CH2—CONH—, S2: 2 peg.

[5] = Water solubility test (observation and HPLC); format: physicochemical; conditions: thermodynamic from solid
Protocol: The compounds prepared in accordance with the examples of the disclosure and the reference compounds C1, C2, C3 and C4 were lyophilized (−70° C.).

[6] = tested on: CT26 tumor cells; test: MTT assay of N-CBP and HSA-QHL-095-N-CBP; format: cell-based; conditions: 48 hours, CT26 tumor cells and CD8+ T cells seeded
Protocol: After counting the separated and cultured cells, adjust the cell concentration with culture medium, inoculate the cells on a 96-well culture plate with 100 μl cell suspension per well, 100000 cells/well of CD8+ T cells and 20000 cells/well of CT26 tumor cells. The 96-well plate was incubated overnight for 24 hour at 37° C. in a carbon dioxide (5%) incubator. After 24 hours, 100 ul of cell culture medium containing different concentrations of drugs was added to the 96-well culture plate, and control wells (0.1% DMSO) without drugs but with corresponding drug solvent were set, and blank wells (Blank) with medium but without cells were set. Each set was prepared in triplicate and the plates were incubated for 48 hours at 37° C. in a 5% CO2 incubator. After 48 hours, 20 μl MTT (5 mg/ml) was added to each well and the incubation was continued for 4 hours. The culture medium was then gently aspirated, and 150 μl DMSO was added to each well as solvent for dissolution. After dissolution, the absorbance at 490 nm was measured with a microplate reader.

[7] = 54 umol/kg IV once a week for 4 weeks
[8] = Mus musculus, read-out: Tumor inhibition rate (%) Day 28
[9] = 36 umol/kg IV once a week for 3 weeks

Compound	Tumor volume (mm^3) Day 28 [1, 7] [mm^3]	inhibition in vivo at 54 µmol/kg [1, 8] [%]	Inhibition rate of M2 macrophages [2] [%]	Tumor volume (mm^3) Day 28 [3, 9] [mm^3]	solubility [5] [µg/mL]	other results
COc1cccc2c1C(=O)c1c(O)c3c(c(O)c1C2=O)C[C@@](O)(C(=O)CO)C[C@@H]3O[C@H]1C[C@H](NC(=O)[C@H](CC(C)C)NC(=O)[C@H](CC(N)=O)NC(=O)[C@H](C)NC(=O)[C@H](C)N)[C@H](O)[C@H](C)O1 [AANL-DOX, reference compound] (H-AANL-{Doxorubicin(3'-N)})	1564 ± 689.4	46	16.9	318.5 ± 197.6		inhibition in vivo at 36 µmol/kg ([3]; HT-1080, iv, 672 h): 81.8%; Activation efficiency (%) ([4]; Table 2-1): 42.1%
COCCOCC(=O)N[C@@H](C)C(=O)N[C@@H](C)C(=O)N[C@@H](CC(N)=O)C(=O)N[C@@H](CC(C)C)C(=O)N[C@H]1C[C@H](O[C@H]2C[C@](O)(C(=O)CO)Cc3c(O)c4c(c(O)c32)C(=O)c2c(OC)cccc2C4=O)O[C@@H](C)[C@H]1O [C4 PEG-AANL-DOX, reference compound] (MeOCH2CH2OCH2CO-AANL-{Doxorubicin(3'-N)})	848.7 ± 347.5	70.7	10.5		< 5000	Activation efficiency (%) ([4]; Table 2-3): 66.9%
COc1cccc2c1C(=O)c1c(O)c3c(c(O)c1C2=O)C[C@@](O)(C(=O)CO)C[C@@H]3O[C@H]1C[C@H](N)[C@H](O)[C@H](C)O1 [DOX, doxorubicin, reference compound]				754.4 ± 587.4		Tumor volume (mm^3) Day 28 ([1]; DOX 18 umol/kg IV (toxicity limitations)): 1683.4 ± 1087.4 mm^3; inhibition in vivo at 18 µmol/kg ([1]; Mus musculus, HepG2, 672 h, DOX 18 umol/kg IV (toxicity limitations), read-out: Tumor inhibition rate (%) Day 28): 41.9%; inhibition at 10 µM ([2]; Mus musculus, Macrophage): 12.6%; inhibition in vivo at 36 µmol/kg ([3]; HT-1080, 672 h, 36 umol/kg IV once a week for 3 weeks): 56.8%
[NH3+][Pt-2]1([NH3+])[O]C(=O)C2(CNC2)C(=O)[O]1 [N-CBP]						in vitro cytotoxicity (FIGS. 13 and 14) [6]: stronger than carboplatin and oxaliplatin and weaker than cisplatin
CC(NC(=O)CCCCCN1C(=O)C=CC1=O)C(=O)NC(C)C(=O)NC(CC(N)=O)C(=O)Nc1ccc(COC(=O)N2CC3(C2)C(=O)[O][Pt-2]([NH3+])([NH3+])[O]C3=O)cc1 (stereo not drawn) [QHL-140-N-CBP]			89.5		> 10000	
CC(NC(=O)CCCN1C(=O)C=CC1=O)C(=O)NC(C)C(=O)NC(CC(N)=O)C(=O)Nc1ccc(COC(=O)N2CC3(C2)C(=O)[O][Pt-2]([NH3+])([NH3+])[O]C3=O)cc1 (stereo not drawn) [QHL-143-N-CBP]			78.4		> 10000	
